pIC50: −log10 of the molar value.
What was measured:
[1] = molecular target: T1, Human Vitamin D3 Receptor (VDR) (Homo sapiens, UniProt P11473); experiment: Binding affinity to human vitamin D3 receptor (Polarscreen Vitamin D Receptor Competitor assay, Red; fluorescence polarization); conditions: ratio of IC50 relative to IC50 of 1α,25-dihydroxyvitamin D3
T1 construct: purchased Invitrogen Corporation
T1 sequence (P11473 1-427): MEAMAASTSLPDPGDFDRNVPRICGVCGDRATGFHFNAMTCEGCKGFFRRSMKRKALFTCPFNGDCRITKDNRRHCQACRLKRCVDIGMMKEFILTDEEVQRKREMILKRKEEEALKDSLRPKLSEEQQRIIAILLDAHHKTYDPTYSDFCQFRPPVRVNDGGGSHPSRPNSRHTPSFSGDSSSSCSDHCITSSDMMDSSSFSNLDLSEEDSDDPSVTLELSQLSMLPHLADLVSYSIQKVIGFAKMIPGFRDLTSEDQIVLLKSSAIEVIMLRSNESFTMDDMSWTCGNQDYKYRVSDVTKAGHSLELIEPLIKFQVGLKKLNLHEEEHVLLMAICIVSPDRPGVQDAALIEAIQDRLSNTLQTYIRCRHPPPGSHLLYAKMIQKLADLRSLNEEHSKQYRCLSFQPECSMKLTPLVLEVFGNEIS
Method: Binding Affinity to Human Vitamin D3 Receptor (VDR) This binding affinity was assessed by a VDR affinity measurement kit (Polarscreen™ Vitamin D Receptor Competitor assay, Red; Invitrogen Corporation). The compounds of the present invention or 1α,25-dihydroxyvitamin D3 at various concentrations in DTT-containing buffer (pH 7.5) were mixed with fluorescence-labeled VDR ligand-human VTR complex in DTT-containing buffer (pH 7.5). The degree of polarization of the resulting solution was measured after the incubation of the solution at room temperature. The polarization values were plotted against the concentration of the test compounds, IC50 (the concentration of the test compounds at which the polarized value is reduced to 50%) was determined.

[2] = molecular target: T2, human VDR (Homo sapiens, UniProt P11473); experiment: Vitamin D3 receptor-antagonist activity: human osteocalcin promoter luciferase reporter in HOS cells transfected with human VDR and human RXR; assay type: cell-based; conditions: for Antagonist specific activity against TEI-9647 (%): IC50 of test compound with respect to IC50 of TEI-9647 in each experiment; for pIC50: luciferase activity in HOS cells, with 1α,25-dihydroxyvitamin D3 1×10^−8 M, 24 hours
T2 construct: expressed in transfected cells; host or cells: HOS cells (human osteosarcoma, ATCC), pcDNA3 expression vector, Lipofectamine 2000
T2 sequence (P11473 1-427): T1 sequence (P11473 1-427)
Description: Vitamin D3 Receptor-Antagonist Activity in Terms of the Transcription Activity in Human Osteocalcin by 1α,25-dihydroxyvitamin D3 as a Marker
(1) A pGL3 vector (Promega Corp.) was used as a reporter vector. The promoter sequence of the human osteocalcin gene, which was obtained by a known method (Ozono et al., J. Biol. Chem., 265:21881-21888, 1990), was cloned from cDNA acquired from HOS cells (obtained from ATCC) and inserted into the upstream of the luciferase gene on the reporter vector. An expression vector was constructed by inserting a DNA sequence encoding human VDR and human RXR into a pcDNA3 vector (Invitrogen Corp). The HOS cells were incubated in a DMEM medium supplemented with 10% FBS at 37° C. in the presence of 5% CO2, and subcultivated every 2 or 3 days.
(2) Cells being subcultivated were collected by centrifugation and re-suspended in a serum and phenol red-free DMEM medium at 4×10^5 cells/mL. The re-suspension of cells was plated in a 96 well plate at 0.1 mL/well. In this system, various vectors described in (1) were added at 0.05 mL/well with Lipofectamin 2000 (Invitrogen Corp.). After the incubation for 3 hours at 37° C., 1α,25-dihydroxyvitamin D3 and the compounds of the present invention in various concentrations or TEI-9647 (note) as a control (the final concentration: 1×10^−8 M for 1α,25-dihydroxyvitamin D3, and 1×10^−6M and 1×10^−12M for the compounds of the present invention and TEI-9647) were added to each well. After incubation at 37° C. for 24 hours, the medium was removed, the cells were washed with PBS(−) once, and measured for the luciferase activity using a Dual Glo-Luciferase Assay kit (Promega Corp.) by luminometer (Berthold Corp.). The resulting luciferase values were plotted against the concentration of the test compounds and IC50 was determined as the concentration of the test compound at which the luciferase value was inhibited by 50%. Furthermore, to compare the intensities of activity among experiments, the IC50 value of the test compounds with respect to the IC50 value of […] in each experiment was calculated as the antagonist specific activity (%) against TEI-9647.

[3] = test system: HL-60 cells; experiment: Vitamin D3 receptor-antagonist effect: inhibition of 1α,25-dihydroxyvitamin D3-induced differentiation of HL-60 (NBT reduction activity); assay type: cell-based; conditions: Homo sapiens, 96 h; NBT-positive HL-60 cells, co-treatment with 1α,25-dihydroxyvitamin D3 1×10^−8 M, 4 days
Description: Vitamin D3 Receptor-Antagonist Effect in Terms of Cellular Differentiation-Inducing Activity of 1α,25-dihydroxyvitamin D3 in HL-60 as a Marker
(1) A HL-60 cell line purchased from a cell bank (Japanese Cancer Research Resource Bank, Cell number: JCRB0085) was used. The cells were frozen for storage as a frozen storage stock to prevent cell characteristic changes due to successive cultivations. The cells were defrosted prior to the initiation of the experiment, and those which started successive culturing were used in the experiment. Cells subcultured for one month to a half year were used for the experiment. The successive culturing was carried out by diluting the cells at a ratio of about 1/100 (1-2×10^4 cells/mL) in a fresh medium after the collection of cells from a cell suspension by centrifugation. RPMI-1640 supplemented with 10% fetal bovine serum was used as the culture medium.
(2) The subcultured cells by the procedure described in (1) were collected by centrifugation and re-suspended in the medium at 5×10^3 cells/mL, and the cells were plated into a 24-well culture dish at 1 mL/well. To this system, a solution of 1α,25-dihydroxyvitamin D3 at a concentration of 1×10^−5 M and the compounds of the present invention in a range of […] to 3×10^−3 M in ethanol, respectively, were added at 1 μL per well (the final concentration: 1×10^−8 M for 1α,25-dihydroxyvitamin D3, and 1×10^−9 M to 3×10^−6 M for the compounds of the present invention). Ethanol was added at 1 μL per well as a control. After the plate was incubated at 37° C. for 4 days in the presence of 5% CO2, the cells were separated and collected by centrifugation.
(3) The induction of nitroblue tetrazolium (hereinafter NBT) reduction activity was used as a marker for cell differentiation-inducing activity of HL-60 cells. The measurement of NBT reduction activity was carried out according to the following procedure. Specifically, cells collected by centrifugation were re-suspended in a fresh medium. Then 0.1% of NBT and 12-O-tetradecanoylphorbor-13-acetate at a final concentration of 100 ng/mL were added to the cell suspension and the mixture was incubated at 37° C. for 25 minutes. Then the cytospin smears were prepared and stained with Kernechtrot after air-drying. The ratio of positive cells expressing NBT reduction activity was determined under optical microscopy. Percentage ratios of the ratio of NBT-positive cells in a simultaneous treatment with 1α,25-dihydroxyvitamin D3 (1×10^−8 M) and a compound of the present invention (1×10^−9M and 3×10^−6 M) over the ratio of the NBT-positive cells in a single treatment with 1α,25-dihydroxyvitamin D3 (1×10^−8 M) were plotted against the treating concentration of the compounds of the present invention. […]

[4] = molecular target: T3, intracellular 1α,25-dihydroxyvitamin D3 receptor protein in chick intestinal mucous membrane (Gallus gallus, UniProt O42392); experiment: Binding affinity to intracellular vitamin D3 receptor (VDR) in chick intestinal mucous membrane, [3H]1α,25-dihydroxyvitamin D3 competition; conditions: ratio of IC50 relative to IC50 of 1α,25-dihydroxyvitamin D3, 25° C., 1 hour
T3 construct: The intracellular 1α,25-dihydroxyvitamin D3 receptor protein in chick intestinal mucous membrane (0.2 mg); from tissue; host or cells: chick intestinal mucous membrane
T3 sequence (O42392 1-451): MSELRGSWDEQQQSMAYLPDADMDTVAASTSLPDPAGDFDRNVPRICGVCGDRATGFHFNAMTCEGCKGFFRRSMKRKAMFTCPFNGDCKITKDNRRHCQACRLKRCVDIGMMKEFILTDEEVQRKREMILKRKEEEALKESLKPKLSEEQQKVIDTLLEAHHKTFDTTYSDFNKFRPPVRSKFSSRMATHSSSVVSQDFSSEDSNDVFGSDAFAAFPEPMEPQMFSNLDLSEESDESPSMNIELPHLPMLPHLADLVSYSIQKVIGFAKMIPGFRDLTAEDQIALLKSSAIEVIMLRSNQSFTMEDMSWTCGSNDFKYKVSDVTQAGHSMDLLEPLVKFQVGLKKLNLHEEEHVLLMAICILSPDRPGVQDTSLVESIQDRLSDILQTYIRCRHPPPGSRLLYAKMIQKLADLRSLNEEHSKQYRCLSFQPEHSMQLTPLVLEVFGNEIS
Method: Binding Affinity to Intracellular Vitamin D3 Receptor (VDR) in Chick Intestinal Mucous Membrane
This binding affinity was assayed according to the method described by Ishizuka, et al. (Steroids, 37:33-43, 1982). Specifically, a solution of [26, 27-methyl-^3H]1α,25-dihydroxyvitamin D3 (15,000 dpm, 180 Ci/mmol) in ethanol (10 μL) and a solution of various concentrations of the compounds of the present invention in ethanol (40 μL) were added into a polypropylene tube (12×75 mm). The intracellular 1α,25-dihydroxyvitamin D3 receptor protein in chick intestinal mucous membrane (0.2 mg) and gelatin (1 mg) were dissolved in 1 mL of phosphate buffer (pH 7.4), the solution was added into the tube, and the mixture was allowed to react at 25° C. for 1 hour. To the tube, a 40% polyethylene glycol 6000 solution (1 mL) was added and the mixture was vigorously stirred. Then the tube was centrifuged at 2260×g at 4° C. for 60 minutes. The bottom of the tube containing precipitate was cut off by a cutter knife and was placed in a liquid scintillation vial, dioxane scintillator (10 mL) was added thereto and the radioactivity of the precipitate was measured by a liquid scintillation counter. The measured values were plotted against the concentration of the test compounds, and IC50 (the concentration of the test compounds at which binding to the receptor was inhibited by 50%) was determined. The ratios of the IC50 of the compounds of the present invention over the IC50 of 1α,25-dihydroxyvitamin D3 were calculated as the VDR affinity of the compounds of the present invention (%).

Compound	VDR affinity (%) [1] [%]	Antagonist specific activity against TEI-9647 (%) [2] [%]	pIC50 [2]	pIC50 [3]	VDR affinity (%) [4] [%]
C=C1/C(=C\C=C2/CCC[C@]3(C)[C@@H]([C@H](C)CC4CC(C)(O)C(=O)N4Cc4cc(OCC)cc(OCC)c4)CC[C@@H]23)C[C@@H](O)[C@H](C)[C@@H]1O (single isomer, unassigned) [Compound No. 41c, 2α-methyl-1α,25-dihydroxyvitamin D3-26,23-lactam-N-(3,5-diethoxybenzyl)]	30	17.8	7.28		
C=C1/C(=C\C=C2/CCC[C@]3(C)[C@@H]([C@H](C)CC4CC(C)(O)C(=O)N4CCc4ccccc4)CC[C@@H]23)C[C@@H](O)[C@H](C)[C@@H]1O (stereo partly drawn) [Compound No. 11a, 2α-methyl-1α,25-dihydroxyvitamin D3-26,23-lactam-N-(2-phenethyl)]		90.5	7.56	7.80	50
C=C1/C(=C\C=C2/CCC[C@]3(C)[C@@H]([C@H](C)C[C@H]4C[C@](C)(O)C(=O)N4CCc4ccccc4)CC[C@@H]23)C[C@@H](O)[C@H](CCCO)[C@@H]1O [Compound No. 12a, 2α-(3-hydroxypropyl)-1α,25-dihydroxyvitamin D3-26,23-lactam-N-(2-phenethyl)]		143.1	7.76	8.00	222
C=C1/C(=C\C=C2/CCC[C@]3(C)[C@@H]([C@H](C)CC4CC(C)(O)C(=O)N4CCc4ccccc4)CC[C@@H]23)C[C@@H](O)[C@H](CCCO)[C@@H]1O (stereo partly drawn) [Compound No. 12b, 2α-(3-hydroxypropyl)-1α,25-dihydroxyvitamin D3-26,23-lactam-N-(2-phenethyl)]				6.77	
C=C1/C(=C\C=C2/CCC[C@]3(C)[C@@H]([C@H](C)C[C@H]4C[C@](C)(O)C(=O)N4CCc4ccccc4)CC[C@@H]23)C[C@@H](O)[C@H](OCCCO)[C@@H]1O [Compound No. 13a, 2α-(3-hydroxypropoxy)-1α,25-dihydroxyvitamin D3-26,23-lactam-N-(2-phenethyl)]		29.9	7.08	7.28	20
C=C1/C(=C\C=C2/CCC[C@]3(C)[C@@H]([C@H](C)CC4CC(C)(O)C(=O)N4Cc4cc(OCC)cc(OCC)c4)CC[C@@H]23)C[C@@H](O)[C@H](C)[C@@H]1O (stereo partly drawn) [Compound No. 41a, 2α-methyl-1α,25-dihydroxyvitamin D3-26,23-lactam-N-(3,5-diethoxybenzyl)]	31				
C=C1/C(=C\C=C2/CCC[C@@]3(C)C2CC[C@@H]3[C@H](C)CC2CC(C)(O)C(=O)N2Cc2cc(OCC)cc(OCC)c2)C[C@@H](O)[C@H](CCCO)[C@@H]1O (stereo partly drawn) [Compound No. 42c, 2α-(3-hydroxypropyl)-1α,25-dihydroxyvitamin D2-26,23-lactam-N-(3,5-diethoxybenzyl)]		6.1	7.12		
C=C1/C(=C\C=C2/CCC[C@]3(C)[C@@H]([C@H](C)CC4CC(C)(O)C(=O)N4Cc4cc(OCC)cc(OCC)c4)CC[C@@H]23)C[C@@H](O)[C@H](OCCCO)[C@@H]1O (stereo partly drawn) [Compound No. 43c, 2α-(3-hydroxypropoxy)-1α,25-dihydroxyvitamin D3-26,23-lactam-N-(3,5-diethoxybenzyl)]		9.8	7.02		

— US20110207944A1, “VITAMIN D3 LACTAM DERIVATIVE” (TEIJIN PHARMA LIMITED, priority 2008, published 2011)
